Patent US9889135B2, “Companion diagnostic for CDK4 inhibitors” (Memorial Sloan-Kettering Cancer Center, priority 2013, dated 2018)

What was measured:
DBTRG-05MG glioma cells = test: PD-induced growth arrest (BrdU incorporation); type: cell-based; conditions: BrdU incorporation 7 days after treatment
Description: (§1) Cell lines were maintained in DMEM High glucose (HG) supplemented with 10% heat-inactivated fetal bovine serum. Glioma cell lines, DKMG, SNB19, DBTRG-05MG, and […], were maintained in DMEM HG supplemented with 10% fetal bovine serum and 2 mM glutamine. The MCF7 breast cancer cell line was maintained in RPMI-1640 media supplemented with 10% fetal bovine serum and 2 mM glutamine.
(§2) shRNA were delivered in the pLKO.1 vector (Sigma) and infected cells selected using puromycin (1 μg/ml); infection with a virus carrying a scramble control ([…]) was used as a control in all experiments utilizing shRNA. Cell lines were treated with […] or shRNA directed against CDK4 ([…] (SEQ ID NO:4)), MDM2 (M376, […] (SEQ ID NO:5); M380, […] (SEQ ID NO:6)), HAUSP (4057, […] (SEQ ID NO:7); 845, […] (SEQ ID NO:8)) or CDK6 ([…] (SEQ ID NO:9)) for 48 hours to 7 days and stained with BrdU (20 μM for two hours) or annexin V as previously described (22, 48). […] was determined by staining with propidium iodine and FACS analyses (49).
(§3) Cells were stained with BrdU (20 μM for two hours) or annexin V as previously described (22, 48). […] was determined by staining with propidium iodine and FACS analyses (49).

DKMG glioma cells = test: PD-induced growth arrest (BrdU incorporation); type: cell-based; conditions: BrdU incorporation 7 days after treatment
Description: as §1, §2, §3

MCF7 breast cancer cells = test: PD-induced growth arrest (BrdU incorporation); type: cell-based; conditions: BrdU incorporation 7 days after treatment
Description: as §1, §2, §3

SNB19 glioma cells = test: PD-induced growth arrest (BrdU incorporation); type: cell-based; conditions: BrdU incorporation 7 days after treatment
Description: as §1, §2, §3

T98G glioma cells = test: PD-induced growth arrest (BrdU incorporation); type: cell-based; conditions: BrdU incorporation 7 days after treatment
Description: as §1, §2, §3

RB in WD/DDLS cell lines = test: RB phosphorylation by immunoblot; type: cell-based, human; conditions: 1 or 2 days of treatment
Description: FIG. 1A-C. […] Mean percentage of BrdU incorporation or annexin V+/7-AAD− cells was calculated from three or more independent experiments. Error bars represent standard deviation (*p<0.05).
Antibodies against CDK4 (3F121), MDM2 (N-20 and SMP14), total RB (IF8), Cyclin A (H432), p16 (C20), p53 (DO-1 and Bp53-12), tubulin (C20) and FLAG (M2) were obtained from Santa Cruz Biotechnology, phospho-Rb 780 (#9307) from Cell Signalling, and ARF (3642) from Abeam, HAUSP (A300-033A) from Bethyl Laboratories. Treated cells were lysed with buffer composed of 50 mM Tris-HCl, pH7.4, 250 mM NaCl, 5 mM EDTA, 0.5% NP40, 2 mM PMSF, and supplemented with protease inhibitors. Eighty micrograms of protein were resolved by SDS-PAGE and transferred to PVDF membranes. Membranes were incubated overnight with antibodies (1:1000). […] Cycles were repeated every four weeks and patients are still on trial. Pre-treatment biopsies were collected within two weeks of the first dose and post-treatment biopsies collected after at last three weeks of treatment. Extracts were prepared in 50 mM Tris-HCl, pH7.4, 150 mM NaCl, 1 mM EDTA, 1% NP40, 0.25% sodium deoxycholate and supplemented with mini-protease inhibitor cocktail (Roche). Tumor response was assessed by reference radiologist by CT scan every six weeks for 36 weeks, and every 12 weeks thereafter. […]

[1] = test system: LS8107, LS7785-10, LS8313 and LS7785-1 cells; test: Oil-Red O staining of lipid droplets; type: cell-based, human
LS6736 cells = test: SA-β-gal and HP1γ staining in LS6736; type: cell-based, human; conditions: LS6736 (MDM2 amplified, CDK4 not); seven days
Description: Cells were plated at a concentration of 25,000 per well in a 4-well chamber slides (Lab-Tek) and treated for seven days with drug or shRNA as described above and stained for senescence-associated β-galactosidase (Cell Signaling kit #9860). Cell number was quantitated by DAPI staining and β-galactosidase staining quantitated as a proportion of total cells. Senescence associated heterochromatic foci were quantitated after cells were fixed with 4% paraformaldehyde, permeabilized with 0.1% Triton, blocked with 2% FBS, and stained with antibodies against HP1γ (1:5000 dilution, 2MOD-1G6 Millipore). Senescent cells were identified by immunofluorescence after treatment of slides with anti-mouse secondary antibodies and quantitation of focal SAHF as a percent of total cells (Leica Upright Confocal SP5 confocal microscope). Actin was marked using phalloidin staining (1:500, Invitrogen) and cells were counterstained with DAPI. Cell area was measured by with Metamorph software to calculate relative area per cell.

[2] = test system: Flag-tagged MDM2 in LS8817 cells; test: turnover of FLAG-tagged MDM2 and C464A mutant; type: cell-based, human
Description: FIG. 21A-B. Turnover of MDM2 is regulated post-translationally. […] Tubulin was used as a loading control. This experiment was repeated twice with similar results. (B) LS8817 cells transduced with either a FLAG-tagged MDM2 or a FLAG-tagged C464A mutant of MDM2 were selected and the turnover of the FLAG-tagged protein measured by immunoblot after protein synthesis was blocked with cycloheximide for the indicated amount of time. A representative immunoblot is shown and the mean and standard deviation was compiled from two independent experiments.

[3] = test system: HAUSP and MDM2 interaction in LS8817, LS0082, LS7785-1 and LS7785-10 cells; test: co-immunoprecipitation of HAUSP and MDM2; type: cell-based, human; conditions: two days PD0332991, then 5 μM MG132 for 2 hours; detected in untreated cells
Description: FIG. 25A-D. Turnover of MDM2 is regulated post-translationally. […] Extracts were prepared and MDM2 was immunoprecipitated and the presence of HAUSP and MDM2 in the precipitates were determined by immunoblot. IgG was used as a non-specific antibody control for the immunoprecipitation. […] Tubulin is a loading control. HAUSP levels were reduced with shRNA in the indicated cells lines and the effect on protein expression (C) and the accumulation of senescence-associated (3-galactosidase positive cells measured (D). The mean and standard deviation was compiled from at least two independent experiments with each cell line and a representative immunoblot is shown.

normal and tumor cells = conditions: both normal and tumor cells; cited from earlier work

For `CC(=O)c1c(C)c2cnc(Nc3ccc(N4CCNCC4)cn3)nc2n(C2CCCC2)c1=O` [PD0332991], the PD-induced growth arrest (DBTRG-05MG glioma cells) was “+ (BrdU incorporation is reduced at least 8X 7 days after treatment with the drug)”, the PD-induced growth arrest (DKMG glioma cells) was “+ (BrdU incorporation is reduced at least 8X 7 days after treatment with the drug)” and the PD-induced growth arrest (MCF7 breast cancer cells) was “+ (BrdU incorporation is reduced at least 8X 7 days after treatment with the drug)”. The PD-induced growth arrest (SNB19 glioma cells) was “+ (BrdU incorporation is reduced at least 8X 7 days after treatment with the drug)”, the PD-induced growth arrest (T98G glioma cells) was “+ (BrdU incorporation is reduced at least 8X 7 days after treatment with the drug)” and the “unphosphorylated RB” value (RB in WD/DDLS cell lines) was “accumulated”. The “Oil-Red O staining” value [1] was “not increased”, the “number of SA-β-gal and SAHF (HP1γ) positive cells” value (LS6736 cells) was “did not increase” and the “stability of wild type Flag-tagged MDM2” value [2] was “still turned over”. The “stability of the C464A mutant of MDM2” value ([2]; Flag-tagged E3 ligase-deficient mutant) was “did not affect”, the “interaction of HAUSP and MDM2 detected by co-immunoprecipitation” value [3] was “not in any of the cells treated” and the cell cycle arrest (normal and tumor cells) was “G1 arrest”.
